Counter-ions that a name gives are not always drawn. Like-named read-outs stand apart in the source and are kept apart here.
Key:
Assay type in all cases: cell-based
[1] = target: EGFR (H773insNPH) expressing Ba/F3 stable cell line (Homo sapiens, UniProt P00533, DUP771-773, cells depend on it); assay: Cellular proliferation (Alamar Blue) assay, EGFR H773insNPH Ba/F3; conditions: 72 hr, read-out: NPH IC50
Method: • 1. EGFR(D770_N771insSVD) expressing Ba/F3 stable cell line • 2. EGFR (A767_dupASV) expressing Ba/F3 stable cell line • 3. A431 cells • 4. EGFR (H773insNPH) expressing Ba/F3 stable cell line • 5. HER2 (A775_G776insYVMA) expressing Ba/F3 stable cell line Assay Procedure: • 1. Seed cells at 5000 for A431 and 15,000 cells for Ba/F3 in 100 μL/well in complete media (for A431: DMEM with […] and for Ba/F3 cells: RPMI with 10% FBS) in 96-well tissue culture plate. Leave outer wells without cells for background measurements. Incubate at 37 degree Celsius in […] humidified incubator for 16-18 hours. • 2. Add 0.025 ml of 5× concentration compound dilution or DMSO control. Final compound concentration range is 10-0.0005 μM prepared in 3-fold serial dilutions. Incubate for 72 hr at 37 degree Celsius in […] humidified incubator. • 3. Add 0.0125 ml Alamar Blue™ reagent to each well with multi-channel pipette and tap gently on each side of the plate to mix. Incubate for 3 hours at 37 degree Celsius in 5% CO2 humidified incubator. • 4. […] Data analysis was performed using XLfit 5.5.0.5.

[2] = target: EGFR(D770_N771insSVD) expressing Ba/F3 stable cell line (Homo sapiens, UniProt P00533, DUP768-770, cells depend on it); assay: Cellular proliferation (Alamar Blue) assay, EGFR D770_N771insSVD Ba/F3; conditions: 72 hr, read-out: D770 IC50
Sequence of EGFR(D770_N771insSVD) expressing Ba/F3 stable cell line (P00533 with tags, fused parts or gaps DUP768-770): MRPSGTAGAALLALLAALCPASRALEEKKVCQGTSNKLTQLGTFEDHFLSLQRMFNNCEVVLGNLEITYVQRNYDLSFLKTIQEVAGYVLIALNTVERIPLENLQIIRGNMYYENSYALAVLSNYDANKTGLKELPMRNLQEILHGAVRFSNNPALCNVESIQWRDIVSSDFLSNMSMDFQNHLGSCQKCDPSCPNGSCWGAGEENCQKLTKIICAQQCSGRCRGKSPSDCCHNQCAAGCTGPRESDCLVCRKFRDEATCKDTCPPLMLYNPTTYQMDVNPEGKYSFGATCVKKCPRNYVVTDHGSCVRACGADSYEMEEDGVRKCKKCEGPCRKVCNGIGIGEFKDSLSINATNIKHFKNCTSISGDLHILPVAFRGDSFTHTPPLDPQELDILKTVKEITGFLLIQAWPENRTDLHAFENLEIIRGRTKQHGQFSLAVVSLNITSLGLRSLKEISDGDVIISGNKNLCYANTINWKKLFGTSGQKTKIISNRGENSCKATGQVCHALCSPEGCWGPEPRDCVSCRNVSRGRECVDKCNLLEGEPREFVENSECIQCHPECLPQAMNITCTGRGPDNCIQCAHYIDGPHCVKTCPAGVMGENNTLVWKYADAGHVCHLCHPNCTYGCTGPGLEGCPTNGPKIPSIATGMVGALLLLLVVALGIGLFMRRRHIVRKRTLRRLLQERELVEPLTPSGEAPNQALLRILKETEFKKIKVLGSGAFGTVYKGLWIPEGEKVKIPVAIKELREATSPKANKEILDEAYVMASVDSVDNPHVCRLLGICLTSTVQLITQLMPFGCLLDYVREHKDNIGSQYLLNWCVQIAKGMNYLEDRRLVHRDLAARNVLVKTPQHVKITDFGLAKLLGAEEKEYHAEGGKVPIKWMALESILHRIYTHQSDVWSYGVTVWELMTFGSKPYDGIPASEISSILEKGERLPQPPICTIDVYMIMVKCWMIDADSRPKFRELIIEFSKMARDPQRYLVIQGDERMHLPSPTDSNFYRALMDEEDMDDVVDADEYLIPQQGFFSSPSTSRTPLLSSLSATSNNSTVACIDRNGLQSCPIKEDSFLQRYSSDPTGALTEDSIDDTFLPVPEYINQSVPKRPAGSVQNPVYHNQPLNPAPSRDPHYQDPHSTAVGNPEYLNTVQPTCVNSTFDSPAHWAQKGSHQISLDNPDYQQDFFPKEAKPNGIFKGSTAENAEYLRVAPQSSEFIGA
Outline: (§1)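 Seventy-two-hour compound exposure (3-fold series, final 10–0.0005 μM) of mutant EGFR/HER2 Ba/F3 cells plated at 15,000/well in RPMI with 10% FBS. Alamar Blue added for 3 h at 37 °C as proliferation read-out.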

A431 cells = assay: Cellular proliferation (Alamar Blue) assay, A431
[3] = target: EGFR (A767_dupASV) expressing Ba/F3 stable cell line (Homo sapiens, UniProt P00533, DUP767-769, cells depend on it); assay: Cellular proliferation (Alamar Blue) assay, EGFR A767_dupASV Ba/F3; conditions: 72 hr, read-out: A767 IC50
Sequence of EGFR (A767_dupASV) expressing Ba/F3 stable cell line (P00533 with tags, fused parts or gaps DUP767-769): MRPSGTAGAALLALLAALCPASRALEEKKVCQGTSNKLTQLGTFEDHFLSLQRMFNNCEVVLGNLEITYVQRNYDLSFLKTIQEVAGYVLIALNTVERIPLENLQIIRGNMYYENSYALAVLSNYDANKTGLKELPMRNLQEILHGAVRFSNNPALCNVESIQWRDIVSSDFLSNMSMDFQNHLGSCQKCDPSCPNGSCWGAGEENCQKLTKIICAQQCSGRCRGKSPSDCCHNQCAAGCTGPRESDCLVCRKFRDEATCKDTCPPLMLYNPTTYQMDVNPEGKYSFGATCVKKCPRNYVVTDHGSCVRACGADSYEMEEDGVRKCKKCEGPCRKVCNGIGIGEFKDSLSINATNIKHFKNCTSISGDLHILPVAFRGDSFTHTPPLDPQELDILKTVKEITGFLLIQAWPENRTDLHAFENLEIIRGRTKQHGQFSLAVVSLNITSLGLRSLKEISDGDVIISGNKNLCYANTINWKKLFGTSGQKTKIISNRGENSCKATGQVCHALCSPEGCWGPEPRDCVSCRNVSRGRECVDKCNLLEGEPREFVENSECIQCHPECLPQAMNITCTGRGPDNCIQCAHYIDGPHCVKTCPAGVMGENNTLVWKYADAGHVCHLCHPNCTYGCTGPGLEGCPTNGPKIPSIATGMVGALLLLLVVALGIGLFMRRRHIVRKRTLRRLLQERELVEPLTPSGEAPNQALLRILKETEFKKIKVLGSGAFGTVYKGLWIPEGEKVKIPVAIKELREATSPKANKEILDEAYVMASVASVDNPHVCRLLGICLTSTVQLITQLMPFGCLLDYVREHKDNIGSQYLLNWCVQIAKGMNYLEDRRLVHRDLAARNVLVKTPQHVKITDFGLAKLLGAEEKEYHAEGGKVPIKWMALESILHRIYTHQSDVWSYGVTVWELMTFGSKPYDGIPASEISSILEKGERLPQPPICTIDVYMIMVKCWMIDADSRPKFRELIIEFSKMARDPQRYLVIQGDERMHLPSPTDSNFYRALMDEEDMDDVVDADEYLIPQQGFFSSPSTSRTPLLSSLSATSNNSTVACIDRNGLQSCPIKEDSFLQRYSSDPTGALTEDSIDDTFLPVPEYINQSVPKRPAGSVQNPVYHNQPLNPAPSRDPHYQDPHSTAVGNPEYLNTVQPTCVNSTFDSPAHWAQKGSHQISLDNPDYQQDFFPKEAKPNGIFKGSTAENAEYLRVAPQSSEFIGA
Outline: as §1

[4] = target: HER2 (A775_G776insYVMA) expressing Ba/F3 stable cell line (Homo sapiens, UniProt P04626, DUP772-775, cells depend on it); assay: Cellular proliferation (Alamar Blue) assay, HER2 A775_G776insYVMA Ba/F3; conditions: 72 hr, read-out: YVMA IC50
Sequence of HER2 (A775_G776insYVMA) expressing Ba/F3 stable cell line (P04626 with tags, fused parts or gaps DUP772-775): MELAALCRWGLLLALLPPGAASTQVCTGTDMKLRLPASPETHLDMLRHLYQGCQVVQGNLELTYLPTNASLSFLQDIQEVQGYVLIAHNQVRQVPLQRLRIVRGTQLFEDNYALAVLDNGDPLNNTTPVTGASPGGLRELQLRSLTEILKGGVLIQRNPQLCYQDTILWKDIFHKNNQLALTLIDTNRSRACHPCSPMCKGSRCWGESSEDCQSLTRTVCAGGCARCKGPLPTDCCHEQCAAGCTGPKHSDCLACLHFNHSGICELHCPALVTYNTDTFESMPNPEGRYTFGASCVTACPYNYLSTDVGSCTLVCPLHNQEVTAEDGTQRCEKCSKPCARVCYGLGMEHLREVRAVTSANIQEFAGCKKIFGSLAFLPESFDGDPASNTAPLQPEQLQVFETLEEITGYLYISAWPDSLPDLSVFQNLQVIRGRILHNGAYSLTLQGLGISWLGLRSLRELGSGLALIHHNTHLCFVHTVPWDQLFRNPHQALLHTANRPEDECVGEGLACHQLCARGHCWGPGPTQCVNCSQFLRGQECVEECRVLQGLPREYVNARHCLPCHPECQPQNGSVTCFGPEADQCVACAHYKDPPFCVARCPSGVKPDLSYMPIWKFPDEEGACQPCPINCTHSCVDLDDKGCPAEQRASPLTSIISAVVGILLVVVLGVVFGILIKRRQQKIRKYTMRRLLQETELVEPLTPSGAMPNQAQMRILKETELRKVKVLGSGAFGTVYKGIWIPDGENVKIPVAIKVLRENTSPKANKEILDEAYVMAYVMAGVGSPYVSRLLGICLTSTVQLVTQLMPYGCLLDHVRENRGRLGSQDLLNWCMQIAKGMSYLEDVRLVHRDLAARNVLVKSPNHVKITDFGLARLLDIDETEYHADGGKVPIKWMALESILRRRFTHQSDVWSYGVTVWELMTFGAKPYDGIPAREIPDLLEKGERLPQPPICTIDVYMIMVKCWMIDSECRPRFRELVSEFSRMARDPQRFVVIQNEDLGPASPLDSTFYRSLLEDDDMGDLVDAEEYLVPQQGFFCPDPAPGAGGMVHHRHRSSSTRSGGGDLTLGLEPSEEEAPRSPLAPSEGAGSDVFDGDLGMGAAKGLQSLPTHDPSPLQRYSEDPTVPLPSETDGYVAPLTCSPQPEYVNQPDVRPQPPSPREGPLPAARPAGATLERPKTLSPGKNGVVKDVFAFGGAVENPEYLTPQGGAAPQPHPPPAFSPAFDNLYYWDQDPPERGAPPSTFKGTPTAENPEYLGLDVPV
Outline: as §1

[5] = Homo sapiens, A-431; A431 cells, Alamar Blue, 72 hr; read-out: A431 IC50
[6] = Homo sapiens, A-431; A431 cells, 72 hr, Alamar Blue; read-out: A431 IC50

Sequence of EGFR (H773insNPH) expressing Ba/F3 stable cell line (P00533 with tags, fused parts or gaps DUP771-773): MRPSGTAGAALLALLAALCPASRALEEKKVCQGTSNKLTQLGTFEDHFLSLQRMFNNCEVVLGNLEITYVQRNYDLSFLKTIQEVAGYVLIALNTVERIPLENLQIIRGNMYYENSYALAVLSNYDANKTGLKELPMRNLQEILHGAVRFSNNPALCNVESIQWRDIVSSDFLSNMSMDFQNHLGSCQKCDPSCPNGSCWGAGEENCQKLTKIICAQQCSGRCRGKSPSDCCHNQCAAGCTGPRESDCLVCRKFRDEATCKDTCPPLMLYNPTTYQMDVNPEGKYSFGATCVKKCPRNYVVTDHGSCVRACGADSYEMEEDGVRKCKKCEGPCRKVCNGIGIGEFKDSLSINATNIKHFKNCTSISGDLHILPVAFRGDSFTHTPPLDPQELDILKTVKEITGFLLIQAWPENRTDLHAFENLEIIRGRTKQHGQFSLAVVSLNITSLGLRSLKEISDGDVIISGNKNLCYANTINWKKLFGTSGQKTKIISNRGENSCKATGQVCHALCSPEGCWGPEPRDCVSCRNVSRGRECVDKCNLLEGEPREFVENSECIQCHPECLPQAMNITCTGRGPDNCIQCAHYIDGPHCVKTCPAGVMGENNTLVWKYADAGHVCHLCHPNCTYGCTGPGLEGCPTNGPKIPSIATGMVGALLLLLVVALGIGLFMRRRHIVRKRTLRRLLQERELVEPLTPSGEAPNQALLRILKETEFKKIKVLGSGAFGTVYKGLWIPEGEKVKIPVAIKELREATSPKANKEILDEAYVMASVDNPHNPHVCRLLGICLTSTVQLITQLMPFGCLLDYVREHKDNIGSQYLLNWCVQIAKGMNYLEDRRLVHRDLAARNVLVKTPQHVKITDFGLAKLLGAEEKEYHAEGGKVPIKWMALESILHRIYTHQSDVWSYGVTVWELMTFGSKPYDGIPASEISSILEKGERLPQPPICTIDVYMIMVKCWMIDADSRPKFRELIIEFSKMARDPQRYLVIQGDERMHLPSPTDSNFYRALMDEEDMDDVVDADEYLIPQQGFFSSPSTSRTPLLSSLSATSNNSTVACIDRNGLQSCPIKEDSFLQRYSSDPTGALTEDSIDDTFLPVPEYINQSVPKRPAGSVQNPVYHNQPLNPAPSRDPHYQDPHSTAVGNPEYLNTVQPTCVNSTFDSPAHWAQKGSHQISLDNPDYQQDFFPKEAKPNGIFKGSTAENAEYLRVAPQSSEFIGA

Row | Compound | GI50 [1] [nM] | GI50 [2] [nM] | IC50 (A431 cells; [5]) [nM] | GI50 [3] [nM] | IC50 (A431 cells; [6]) [nM] | GI50 [4] [nM]
1 | C=CC(=O)Nc1ccc(F)c(Nc2nc(Nc3cnn(C4CCC(O)CC4)c3)ncc2Cl)c1 (stereo not shown) [Compound 1, N-(3-((5-chloro-2-((1-(4-hydroxycyclohexyl)-1H-pyrazol-4-yl)amino)pyrimidin-4-yl)amino)-4-fluorophenyl)acrylamide] | 796 | 1030 | 3920 | 930 |  | 
2 | C=CC(=O)Nc1ccc(F)c(Nc2nc(Nc3cnn(C)c3)ncc2-c2cncc(Cl)c2)c1 [Compound 102, N-(3-((5-(5-chloropyridin-3-yl)-2-((1-methyl-1H-pyrazol-4-yl)amino)pyrimidin-4-yl)amino)-4-fluorophenyl)acrylamide] | 48 | 35 | 168 | 31 |  | 
3 | C=CC(=O)Nc1ccc(F)c(Nc2nc(Nc3cnn(CC(C)(C)O)c3)ncc2Cl)c1 [Compound 26, N-(3-((5-chloro-2-((1-(2-hydroxy-2-methylpropyl)-1H-pyrazol-4-yl)amino)pyrimidin-4-yl)amino)-4-fluorophenyl)acrylamide] | 2090 | 4860 | 7410 | 2450 |  | 
4 | C=C(F)C(=O)N1CCCC(Nc2nc(Nc3cnn(C)c3)ncc2Cl)C1 (stereo not shown) [Compound 25, 1-(3-((5-chloro-2-((1-methyl-1H-pyrazol-4-yl)amino)pyrimidin-4-yl)amino)piperidin-1-yl)-2-fluoroprop-2-en-1-one] | > 10000 | > 10000 | > 10000 | > 10000 |  | 
5 | CN(C)C/C=C/C(=O)Nc1cccc(Nc2nc(Nc3cn(C)nc3Cl)ncc2-c2ccc(C(F)(F)F)cc2)c1 [Compound 53, (E)-N-(3-((2-((3-chloro-1-methyl-1H-pyrazol-4-yl)amino)-5-(4-(trifluoromethyl)phenyl)pyrimidin-4-yl)amino)phenyl)-4-(dimethylamino)but-2-enamide] | 1890 | 873 | 7300 | 1020 |  | 
6 | C=CC(=O)Nc1ccc(F)c(Nc2nc(Nc3cnn(C)c3)ncc2-c2cccc(N(C)CCN(C)C)c2)c1 [Compound 125, N-(3-((5-(3-((2-(dimethylamino)ethyl)(methyl)amino)phenyl)-2-((1-methyl-1H-pyrazol-4-yl)amino)pyrimidin-4-yl)amino)-4-fluorophenyl)acrylamide] | > 10000 | > 10000 | > 10000 | > 10000 |  | 
7 | CN(C)C/C=C/C(=O)Nc1cccc(Nc2nc(Nc3cn(C)nc3Cl)ncc2C(F)(F)F)c1 [Compound 54, (E)-N-(3-((2-((3-chloro-1-methyl-1H-pyrazol-4-yl)amino)-5-(trifluoromethyl)pyrimidin-4-yl)amino)phenyl)-4-(dimethylamino)but-2-enamide] | 380 | 296 | 4530 | 1040 |  | 
8 | COc1cc(N2CCCCC2)ccc1Nc1ncc(C(=O)N(C)c2ccccc2)c(Nc2cccc(NC(=O)/C=C/CN(C)C)c2)n1 [Compound 52, (E)-4-((3-(4-(dimethylamino)but-2-enamido)phenyl)amino)-2-((2-methoxy-4-(piperidin-1-yl)phenyl)amino)-N-methyl-N-phenylpyrimidine-5-carboxamide] | > 10000 | 3260 | 6560 | 982 |  | 
9 | Cn1cc(Nc2ncc(-c3ccc(C(F)(F)F)cc3)c(Nc3cc(NC(=O)CCl)ccc3F)n2)cn1 [Compound 252, 2-chloro-N-[4-fluoro-3-({2-[(1-methyl-1H-pyrazol-4-yl)amino]-5-[4-(trifluoromethyl)phenyl]pyrimidin-4-yl}amino)phenyl]acetamide] | 2810 | 1420 |  | 5960 | 1180 | 
10 | C=CC(=O)Nc1ccc(F)c(Nc2nc(Nc3cnn(C)c3)ncc2-c2ccc(C)nc2)c1 [Compound 66, N-(4-fluoro-3-((2-((1-methyl-1H-pyrazol-4-yl)amino)-5-(6-methylpyridin-3-yl)pyrimidin-4-yl)amino)phenyl)acrylamide] | 73 |  | 138 | 35 |  | 50
11 | C=CC(=O)Nc1cccc(Nc2nc(Nc3cnn(C)c3)ncc2-c2ccc(OC)nc2)c1 [Compound 118, N-(3-((5-(6-methoxypyridin-3-yl)-2-((1-methyl-1H-pyrazol-4-yl)amino)pyrimidin-4-yl)amino)phenyl)acrylamide trifluoroacetate] | 29 |  | 163 | 36 |  | 57
12 | C=CC(=O)Nc1cccc(Nc2nc(Nc3cnn(C)c3)ncc2NC(=O)c2ccccc2)c1 [Compound 28, N-(4-((3-acrylamidophenyl)amino)-2-((1-methyl-1H-pyrazol-4-yl)amino)pyrimidin-5-yl)benzamide] | 3010 | 3130 | > 10000 | 2240 |  | 
13 | C=CC(=O)Nc1ccc(F)c(Nc2nc(Nc3cnn(C)c3)ncc2-c2cncc(C(F)(F)F)c2)c1 [Compound 56, N-(4-fluoro-3-((2-((1-methyl-1H-pyrazol-4-yl)amino)-5-(5-(trifluoromethyl)pyridin-3-yl)pyrimidin-4-yl)amino)phenyl)acrylamide] | 41 |  | 34 |  |  | 92
14 | C=C(F)C(=O)Nc1ccc(F)c(Nc2nc(Nc3cnn(C)c3)ncc2Cl)c1 [Compound 23, N-(3-((5-chloro-2-((1-methyl-1H-pyrazol-4-yl)amino)pyrimidin-4-yl)amino)-4-fluorophenyl)-2-fluoroacrylamide] | 4470 | > 10000 | > 10000 | 9920 |  | 
15 | C=CC(=O)Nc1ccc(F)c(Nc2nc(Nc3ccc(OC)nc3)ncc2Cl)c1 [Compound 22, N-(3-((5-chloro-2-((6-methoxypyridin-3-yl)amino)pyrimidin-4-yl)amino)-4-fluorophenyl)acrylamide] | 4740 | 7950 | 7100 | 3000 |  | 
16 | C=CC(=O)Nc1ccc(F)c(Nc2nc(Nc3cnn(C)c3)ncc2-c2ccc(Cl)nc2)c1 [Compound 101, N-(3-((5-(6-chloropyridin-3-yl)-2-((1-methyl-1H-pyrazol-4-yl)amino)pyrimidin-4-yl)amino)-4-fluorophenyl)acrylamide] | 30 |  | 56 | 13 |  | 
17 | C=C(F)C(=O)NC1CCCC(Nc2nc(Nc3cnn(C)c3)ncc2Cl)C1 (stereo not shown) [Compound 24] | 4130 | > 10000 | > 10000 | > 10000 |  | 
18 | C=CC(=O)Nc1ccc(F)c(Nc2nc(Nc3cnn(C)c3)ncc2-c2ccc3nccn3c2)c1 [Compound 133, N-(4-fluoro-3-((5-(imidazo[1,2-a]pyridin-6-yl)-2-((1-methyl-1H-pyrazol-4-yl)amino)pyrimidin-4-yl)amino)phenyl)acrylamide trifluoroacetate] | 323 | 294 | 158 | 388 |  | 
19 | C=CC(=O)Nc1ccc(F)c(Nc2nc(Nc3cnn(C)c3)ncc2-c2cnc(C(F)(F)F)nc2)c1 [Compound 123, N-(4-fluoro-3-((2-((1-methyl-1H-pyrazol-4-yl)amino)-2′-(trifluoromethyl)-[5,5′-bipyrimidin]-4-yl)amino)phenyl)acrylamide] | 30 | 24 |  | 16 |  | 
20 | C=CS(=O)(=O)Nc1ccc(F)c(Nc2nc(Nc3cnn(C)c3)ncc2-c2ccc(C(F)(F)F)cc2)c1 [Compound 253, N-[4-fluoro-3-({2-[(1-methyl-1H-pyrazol-4-yl)amino]-5-[4-(trifluoromethyl)phenyl]pyrimidin-4-yl}amino)phenyl] ethene-1-sulfonamide] | > 10000 | 8450 |  | 8750 | 3980 | 
21 | C=CC(=O)Nc1ccc(F)c(Nc2nc(Nc3cnn(C)c3)ncc2-c2cncc(C(F)F)c2)c1 [Compound 110, N-(3-((5-(5-(difluoromethyl)pyridin-3-yl)-2-((1-methyl-1H-pyrazol-4-yl)amino)pyrimidin-4-yl)amino)-4-fluorophenyl)acrylamide] | 34 | 34 | 309 |  |  | 30
22 | C=CC(=O)Nc1cccc(Nc2nc(Nc3cnn(C)c3)ncc2C(=O)NC(C)c2ccccc2)c1 (stereo not shown) [Compound 34, 4-((3-acrylamidophenyl)amino)-2-((1-methyl-1H-pyrazol-4-yl)amino)-N-(1-phenylethyl)pyrimidine-5-carboxamide] | > 10000 | 9520 | > 10000 | 9310 |  | 

From patent US12686673B2 (Blueprint Medicines Corporation, priority 2020, dated 2026)
